What is called IC50 is the concentration needed to halve the response being measured.

These results are taken from patent US20230159453A1 (COCRYSTAL PHARMA, INC., priority 2020, published 2023).

Some results are limits rather than exact numbers.

The test concerns the target SARS2 protease (Severe acute respiratory syndrome coronavirus 2, UniProt P0DTD1). As to the kind of experiment: SARS-CoV-2 protease inhibition assay (SARS2 FRET protease assay). The format is biochemical. As to conditions: SARS-CoV-2 protease 25 nM, FRET, peptide substrate 1.3 μM, 30 minutes at 30° C., compounds 20 μM to 1.0 nM; read-out: IC50.

On to `O=C(N[C@@H](CC1CCCCC1)C(=O)N[C@@H](C[C@@H]1CC2(CCCC2)NC1=O)C(=O)C(=O)NC1CC1)OC1CCCC1Cc1cccc(Cl)c1` (stereo partly drawn) [Compound C159, 2-(3-Chlorobenzyl)cyclopentyl ((2S)-3-cyclohexyl-1-((4-(cyclopropylamino)-3,4-dioxo-1-(2-oxo-1-azaspiro[4.4]nonan-3-yl)butan-2-yl)amino)-1-oxopropan-2-yl)carbamate], for which the IC50 amounted to 3490 nM.

On to `CC(C)C[C@H](NC(=O)N(Cc1ccccc1)C1CCN(C(=O)OC(C)(C)C)CC1)C(=O)N[C@@H](C[C@@H]1CCNC1=O)C(=O)C(=O)NC1CC1` [Compound C98, Tert-butyl 4-(1-benzyl-3-((S)-1-(((S)-4-(cyclopropylamino)-3,4-dioxo-1-((S)-2-oxopyrrolidin-3-yl)butan-2-yl)amino)-4-methyl-1-oxopentan-2-yl)ureido)piperidine-1-carboxylate], for which the IC50 was found to be 2200 nM.

With `CC(C)(COC(=O)N[C@H](C(=O)N[C@H](C=O)C[C@@H]1CCNC1=O)C(C)(C)C)c1cccc(Cl)c1` [Compound C103, 2-(3-Chlorophenyl)-2-methylpropyl ((S)-3,3-dimethyl-1-oxo-1-(((S)-1-oxo-3-((S)-2-oxopyrrolidin-3-yl)propan-2-yl)amino)butan-2-yl)carbamate], the IC50 stood at 736 nM.

Take `CC1(C)CC(CC(NC(=O)[C@H](CC2CCCCC2)NC(=O)OC(c2cccc(Cl)c2)C(C)(C)c2cccc(Cl)c2)C(=O)C(N)=O)C(=O)N1` (some centres unmarked) [Compound C288]: the half-maximal inhibitory concentration (IC50) was found to be 2230 nM.

Turning to `CCCOC(=O)N[C@@H](CC1CCCCC1)C(=O)N[C@H](C=O)CCC(=O)N1CCOc2ccccc2C1` [Compound C18, Propyl ((S)-3-cyclohexyl-1-(((S)-5-(2,3-dihydrobenzo[f][1,4]oxazepin-4(5H)-yl)-1,5-dioxopentan-2-yl)amino)-1-oxopropan-2-yl)carbamate], the IC50 is 49300 nM.

`CC(C)(c1cccc(Cl)c1)[C@H](OC(=O)N[C@@H](CC1CCCCC1)C(=O)N[C@@H](C[C@@H]1CCNC1=O)C(=O)C(N)=O)c1cccc(F)c1` [Compound C183]: the IC50 is 249 nM.

For `O=C(N[C@@H](CC1CCCCC1)C(=O)NC(CC1CC2(CCC2)NC1=O)C(=O)C(=O)NC1CC1)OCc1cccc(Cl)c1` (stereo partly drawn) [Compound C290, 3-Chlorobenzyl ((2S)-3-cyclohexyl-1-((4-(cyclopropylamino)-3,4-dioxo-1-(6-oxo-5-azaspiro[3.4]octan-7-yl)butan-2-yl)amino)-1-oxopropan-2-yl)carbamate], the IC50 came out at 508 nM.

Regarding `CCOP(=O)(OCC)C(O)C(CC1CC2(CCN(C(C)=O)CC2)NC1=O)NC(=O)[C@H](CC(C)C)NC(=O)OCC1CCC(F)(F)CC1` (stereo partly drawn) [Compound C95, (4,4-Difluorocyclohexyl)methyl ((2S)-1-((3-(8-acetyl-2-oxo-1,8-diazaspiro[4.5]decan-3-yl)-1-(diethoxyphosphoryl)-1-hydroxypropan-2-yl)amino)-4-methyl-1-oxopentan-2-yl)carbamate], the IC50 is 7000 nM.

As to `CC1C[C@H](NC(=O)[C@H](CC2CCCCC2)NC(=O)OCc2cccc(Cl)c2)C(O)N(CCc2ccccc2)C1=O` (some centres unmarked) [Compound C4], the IC50 is more than 200000 nM.

Turning to `CC(C)C[C@H](NC(=O)OC(Cc1ccccc1)C1CCCCC1)C(=O)N[C@H](C=O)C[C@@H]1CCNC1=O` (stereo partly drawn) [Compound C237, 1-Cyclohexyl-2-phenylethyl ((S)-4-methyl-1-oxo-1-(((S)-1-oxo-3-((S)-2-oxopyrrolidin-3-yl)propan-2-yl)amino)pentan-2-yl)carbamate], the IC50 came to 3 nM.

On to `CC(C)C[C@H](NC(=O)OC1(Cc2cccnc2)CC1)C(=O)N[C@@H](C[C@@H]1CCNC1=O)C(O)S(=O)(=O)O` (stereo partly drawn) [Compound C62, (2S)-1-Hydroxy-2-((S)-4-methyl-2-(((1-(pyridin-3-ylmethyl)cyclopropoxy)carbonyl)amino)pentanamido)-3-((S)-2-oxopyrrolidin-3-yl)propane-1-sulfonate], for which the IC50 stood at 4600 nM.

On to `O=C(N[C@@H](CC1CCCCC1)C(=O)NC(CC1CC2(CCCCC2)NC1=O)C(=O)C(=O)NC1CC1)OC(Cc1cccc(Cl)c1)c1cccc(Cl)c1` (stereo partly drawn) [Compound C195, 1,2-Bis(3-chlorophenyl)ethyl ((2S)-3-cyclohexyl-1-((4-(cyclopropylamino)-3,4-dioxo-1-(2-oxo-1-azaspiro[4.5]decan-3-yl)butan-2-yl)amino)-1-oxopropan-2-yl)carbamate], for which the IC50 stood at 2010 nM.

Consider `CC(C)C[C@H](NC(=O)OC(C)(C)Cc1ccccc1)C(=O)N[C@H](C=O)C[C@@H]1CCNC1=O` [Compound C46, 2-Methyl-1-phenylpropan-2-yl ((S)-4-methyl-1-oxo-1-(((S)-1-oxo-3-((S)-2-oxopyrrolidin-3-yl)propan-2-yl)amino)pentan-2-yl) carbamate], for which the half-inhibitory concentration (IC50) stood at 1380 nM.

For the compound `CCCCCOC(=O)N[C@@H](CC1CCCCC1)C(=O)N[C@H](C=O)CCC(=O)N1CCOc2ccccc2C1` [Compound C16, Pentyl ((S)-3-cyclohexyl-1-(((S)-5-(2,3-dihydrobenzo[f][1,4]oxazepin-4(5H)-yl)-1,5-dioxopentan-2-yl)amino)-1-oxopropan-2-yl)carbamate], the IC50 was found to be 37800 nM.

With `CC(C)C[C@H](NC(=O)OC(c1ccc(Cl)cc1)C1(c2cccc(Cl)c2)CC1)C(=O)N[C@@H](C[C@@H]1CCNC1=O)C(=O)C(=O)NC1CC1` (stereo partly drawn) [Compound C201, (4-Chlorophenyl)(1-(3-chlorophenyl)cyclopropyl) methyl ((S)-1-(((S)-4-(cyclopropylamino)-3,4-dioxo-1-((S)-2-oxopyrrolidin-3-yl)butan-2-yl)amino)-4-methyl-1-oxopentan-2-yl) carbamate], the IC50 was determined as 4.4 nM.

As to `CC(C)C[C@H](NC(=O)OC1(Cc2cccc(OCc3ccccc3)c2)CC1)C(=O)N[C@@H](CC1CCNC1=O)C(O)S(=O)(=O)O` (stereo partly drawn) [Compound C76, Sodium (2S)-2-((S)-2-(((1-(3-(benzyloxy)benzyl)cyclopropoxy)carbonyl)amino)-4-methylpentanamido)-1-hydroxy-3-((S)-2-oxopyrrolidin-3-yl)propane-1-sulfonate], the IC50 was determined as 380 nM.

Turning to `CC(C)(C)OC(=O)N1CCN(C(=O)CC[C@@H](C=O)NC(=O)[C@H](CC2CCCCC2)NC(=O)OCc2cccc(Cl)c2)CC1c1ccccc1` (stereo partly drawn) [Compound C20, tert-butyl 4-((S)-4-((S)-2-((((3-chlorobenzyl)oxy)carbonyl)amino)-3-cyclohexylpropanamido)-5-oxopentanoyl)-2-phenylpiperazine-1-carboxylate], the IC50 was more than 200000 nM.

Regarding `NC(=O)C(=O)[C@H](C[C@@H]1CCNC1=O)NC(=O)[C@H](Cc1ccccc1)NC(=O)OC(CCc1ccccc1)c1ccccc1` (some centres unmarked) [Compound C255], the IC50 turned out to be 70 nM.

`CC(C)C[C@H](NC(=O)OCCCc1ccccc1)C(=O)N[C@@H](C[C@@H]1CCNC1=O)C(=O)C(N)=O` [Compound C256]: the IC50 was 320 nM.

As to `CCOP(=O)(OCC)C(O)[C@H](CCC(=O)N1CCOc2ccccc2C1)NC(=O)[C@H](CC1CCCCC1)NC(=O)OC1CCN(C(=O)OC(C)(C)C)CC1` (stereo partly drawn) [Compound C13, Tert-butyl 4-((((2S)-3-cyclohexyl-1-(((2S)-1-(diethoxyphosphoryl)-5-(2,3-dihydrobenzo[f][1,4]oxazepin-4(5H)-yl)-1-hydroxy-5-oxopentan-2-yl)amino)-1-oxopropan-2-yl)carbamoyl)oxy)piperidine-1-carboxylate], the half-inhibitory concentration (IC50) was more than 200000 nM.

Regarding `CC(C)C[C@H](NC(=O)OCc1cccc(Cl)c1)C(=O)NC(C=O)CC1CC2(CCCCC2)NC1=O` (stereo partly drawn) [Compound C66, 3-Chlorobenzyl ((2S)-4-methyl-1-oxo-1-((1-oxo-3-(2-oxo-1-azaspiro[4.5]decan-3-yl)propan-2-yl)amino)pentan-2-yl)carbamate], the IC50 turned out to be 100 nM.

Regarding `CC(C)C[C@H](NC(=O)OC(c1ccc(F)cc1)C(C)(C)c1cccc(Cl)c1)C(=O)N[C@H](C=O)C[C@@H]1CCNC1=O` (stereo partly drawn) [Compound C238, 2-(3-chlorophenyl)-1-(4-fluorophenyl)-2-methylpropyl ((S)-4-methyl-1-oxo-1-(((S)-1-oxo-3-((S)-2-oxopyrrolidin-3-yl)propan-2-yl)amino)pentan-2-yl)carbamate], the concentration for half-maximal inhibition (IC50) amounted to 0.1 nM.

In the case of `CCCC[C@H](NC(=O)OC(c1ccccc1)C(C)(C)c1cccc(Cl)c1)C(=O)N[C@@H](CC1CCNC1=O)C(=O)C(N)=O` (stereo partly drawn) [Compound C164, 2-(3-Chlorophenyl)-2-methyl-1-phenylpropyl ((S)-1-(((S)-4-amino-3,4-dioxo-1-((S)-2-oxopyrrolidin-3-yl)butan-2-yl)amino)-1-oxohexan-2-yl) carbamate], the concentration for half-maximal inhibition (IC50) turned out to be 144 nM.

On to `CC(C)(c1cccc(Cl)c1)C(OC(=O)N[C@@H](CC1CCCCC1)C(=O)N[C@@H](C[C@@H]1CCNC1=O)C(=O)C(=O)N1CCCC1)c1ccc2ccccc2c1` (stereo partly drawn) [Compound C150, 2-(3-Chlorophenyl)-2-methyl-1-(naphthalen-2-yl)propyl ((S)-3-cyclohexyl-1-(((S)-3,4-dioxo-1-((S)-2-oxopyrrolidin-3-yl)-4-(pyrrolidin-1-yl)butan-2-yl)amino)-1-oxopropan-2-yl)carbamate], for which the IC50 was more than 20000 nM.

As to `CC(=O)N1CCC2(CC1)CC(CC(C=O)NC(=O)[C@H](Cc1cccc(F)c1)NC(=O)OCc1cccc(Cl)c1)C(=O)N2` (stereo partly drawn) [Compound C67, 3-Chlorobenzyl ((2S)-1-((1-(8-acetyl-2-oxo-1,8-diazaspiro[4.5]decan-3-yl)-3-oxopropan-2-yl)amino)-3-(3-fluorophenyl)-1-oxopropan-2-yl)carbamate], the IC50 turned out to be 300 nM.

`CC(=O)N1CCC2(CC1)C[C@H](C[C@H](NC(=O)[C@H](CC1CCCCC1)NC(=O)c1cc3ccccc3[nH]1)C(=O)C(N)=O)C(=O)N2` [Compound C125, N—((S)-1-(((S)-1-((S)-8-acetyl-2-oxo-1,8-diazaspiro[4.5]decan-3-yl)-4-amino-3,4-dioxobutan-2-yl)amino)-3-cyclohexyl-1-oxopropan-2-yl)-1H-indole-2-carboxamide]: the IC50 was determined as 20.1 nM.
